Data: US10988465B2, “CXCR4 inhibitors and uses thereof” (X4 Pharmaceuticals, Inc., priority 2016, dated 2021)
Read-outs that look alike come from different tables or passages of the source.

What was measured:
[1] = Rat brain uptake assay: pharmacokinetics and brain penetration after IV-PO administration; assay type: in vivo, male SD rats
in vitro = details: human, Caco-2, pH 7.4
How it was run: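 Caco-2 monolayers, checked by TEER with Lucifer yellow as marker, were dosed with 10 μM compound in HBSS pH 7.4 in A-to-B and B-to-A directions. Incubation was 90 min at 37° C, in duplicate. Samples were quantified by LC-MS/MS and Papp calculated.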

[2] = target: T1, Jurkat cells expressing CXCR4 (Homo sapiens, UniProt P61073); experiment: Chemokine (CXCL12-AF647) binding inhibition assay; details: CXCL12-AF647 25 ng/mL, read-out: IC50 CXCL-12 binding Jurkat
T1 construct: endogenous in cells; host or cells: Jurkat
T1 sequence (P61073 whole entry): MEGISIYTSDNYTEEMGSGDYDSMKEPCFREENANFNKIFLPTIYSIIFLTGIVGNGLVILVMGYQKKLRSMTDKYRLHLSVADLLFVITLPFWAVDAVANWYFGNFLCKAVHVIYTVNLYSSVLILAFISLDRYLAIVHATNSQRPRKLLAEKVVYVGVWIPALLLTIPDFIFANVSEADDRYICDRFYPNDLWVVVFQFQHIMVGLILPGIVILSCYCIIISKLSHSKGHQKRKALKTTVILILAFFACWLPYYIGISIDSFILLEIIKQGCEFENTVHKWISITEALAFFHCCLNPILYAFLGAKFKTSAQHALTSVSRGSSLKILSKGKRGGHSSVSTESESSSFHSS
How it was run: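 Cells in HBSS, 20 mM HEPES, 0.2% BSA, pH 7.4, preincubated 15 min at room temperature with compound, then 25 ng/mL CXCL12-AF647 for 30 min. After washing and paraformaldehyde fixation, bound ligand read by flow cytometry; percent inhibition calculated from MFI relative to unlabeled and ligand-only controls.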

[3] = MTD, pharmacokinetics and brain penetration after PO administration; assay type: in vivo, male C57BL/6 mice; details: male; for half-life: MTD mouse, read-out: t½ (converted); for AUC(0-t): C57BL/6, mouse
Procedure: All PO dosing solutions were prepared in 50 mM citrate buffer (pH 4.0).
The blood collection was performed as follows: the animal was restrained manually at the designated time points, approximately 500 μL of blood sample was collected via cardiac puncture vein into EDTA-2K tubes. The whole blood needed to be divided into two parts; one part was placed in the tube containing EDTA-2K for plasma generation and the other was used for the hematology assay, respectively. The blood samples for plasma generation were maintained in wet ice first and centrifuged to obtain plasma (2000 g, 4° C., 5 min) within 15 minutes post sampling. The brain collection was performed as follows: a mid-line incision was made in the animal's scalp and the skin was retracted. Using small bone cutters and rongeurs, the skull overlying the brain was removed. The brain was removed using a spatula and rinsed with cold saline. The brain was placed in screw-top tubes, and then stored at −70° C. until analysis. The CSF collection was performed as follows: a mid line incision was made on the neck. The muscle under the skin was cut to expose the cisterna magna. The cisterna magna was penetrated with the sharp end of one capillary (Burn one end of capillary to make it sharp). The CSF was sucked spontaneously into the capillary.
Plasma sample preparation: An aliquot of 30 μL sample was added with 100 μL MeCN containing 100 ng/mL IS (Dexamethasone). The mixture was vortexed for 10 min and centrifuged at 5800 rpm for 10 min. An aliquot of 40 μL supernatant was added to 40 μL H2O and the mixture was vortexed for 5 min. An aliquot of 2 μL supernatant was injected for LC-MS/MS analysis.
An aliquot of 30 μL brain homogenate (brain:PBS=1:3, w/v) sample was added to 100 μL MeCN containing 100 ng/mL IS (Dexamethasone). The mixture was vortexed for 10 min and centrifuged at 5800 rpm for 10 min. An aliquot of 40 μL supernatant was added to 40 μL H2O and the mixture was vortexed for 5 min. An aliquot of 2 μL supernatant was injected for LC-MS/MS analysis.
An aliquot of 3 μL sample was added to a mixture of 6 μL CSF, 9 μL MeOH/H2O (1/1), 40 μL MeCN containing 200 ng/mL IS (Dexamethasone), and 116 μL H2O. The mixture was vortexed for 5 min. An aliquot of 4 μL was injected for LC-MS/MS analysis.
The sample analysis was performed on UPLC-MS/MS-02 (Triple Quad™ 4000) under the following conditions: positive ion, ESI, MRM detection using dexamethasone as internal standard. HPLC conditions: mobile phase A: H2O-0.1% formic acid, mobile phase B: MeCN-0.1% formic acid on: ACQUITY UPLC HSS T3 (2.1×50 mm, 1.8 μm) at 60° C.

[4] = brain (brain proteins), read-out: Fu (b) % (fraction of drug unbound to brain proteins)
[5] = plasma, read-out: Fu (p) % (fraction of drug unbound to plasma proteins)

Row | efflux ratio at 90 min, 10 μM (in vitro) | SMILES | fraction unbound [1, 4] | fraction unbound [1, 5] | Papp A→B at 90 min, 10 μM (in vitro) | Papp B→A at 90 min, 10 μM (in vitro) | IC50 [2] | half-life ([3]; C57BL/6, in vivo, single administration, D 1-50 mg/kg) | AUC(0-t) ([3]; brain, multiple administration, D 5-300 mg/kg, read-out: AUClast (b)) | AUC(0-t) ([3]; brain, single administration, D 1-50 mg/kg, read-out: AUClast (b)) | AUC(0-t) ([3]; plasma, multiple administration, D 5-300 mg/kg, read-out: AUClast (p)) | AUC(0-t) ([3]; plasma, single administration, D 1-50 mg/kg, read-out: AUClast (p)) | half-life ([3]; C57BL/6, plasma, multiple administration, D 5-300 mg/kg)
1 | 0.1 to 10 | CN1CCN(c2cccc3nc([C@H]4CCC[C@@H](c5ncccc5Cl)N4)[nH]c23)CC1 (racemic) [I-122] | 0.041 | 0.251 | 10 to 30 ×10⁻⁶ cm/s | 10 to 30 ×10⁻⁶ cm/s | 0.01 to 100 nM |  |  |  |  |  | 
2 |  | Cc1cccnc1[C@@H]1CCC[C@H](c2nc3cccc(N4CCN(C)CC4)c3[nH]2)N1C (racemic) [I-3, 2-((2R,6S)-1-methyl-6-(3-methylpyridin-2-yl)piperidin-2-yl)-7-(4-methylpiperazin-1-yl)-1H-benzo[d]imidazole] | 0.014 | 0.101 | 0.1 to 10 ×10⁻⁶ cm/s | 10 to 30 ×10⁻⁶ cm/s | 0.01 to 100 nM | 3.3 h | 384000 ng·h/mL | 15500 ng·h/mL | 142000 ng·h/mL | 7100 ng·h/mL | 6.1 h
